pEC50: −log10 of the molar value.
How the values were obtained:
[1] = system: HCV GT1b wild-type replicon; assay: Assay Example 1: activity against HCV GT1b wild-type replicon (luciferase, transient transfection); assay type: cell-based; conditions: Hepatitis C virus, 72 h, Huh 7 cells, 3 days
Protocol: Cells: Huh 7 cell line and HCV GT1b/3a and GT1b/6a NS5A chimeric replicons and GT1b and GT1a wild-type replicon RNA.
Treatment of Compound: According to the assay final concentrations of the compounds in Table 2, DMSO stock solutions of the compounds were diluted and then added to a 96-well assay plate. The final concentration of DMSO was 0.5%.
(§1) The preparation of cells: After replicon plasmid DNA was linearized with a corresponding restriction enzyme, the DNA was transcribed into RNA by using T7RNA polymerase. Replicon RNA prepared by transcription in vitro was transfected into Huh-7 cells by electroporation. Transfected cells were seeded at a density of 10,000 cells per well into the 96-well assay plate containing the diluted compounds, and then the plate was placed in a 37° C. incubator with 5% CO2 and cultured for 3 days.
Drug activity assay: Luminescence signal value (RLU) was detected with Envision within 15 minutes using the luciferase assay reagent Britelite plus, and the original data (RLU) was used for the calculation of the activity of the compounds.
The activity of the compounds was calculated by using the equation below: Inhibition %=(ZPE−CPD)/(ZPE−HPE)×100%*
The cell viability percentages (Viability %) and the inhibition percentages (Inhibition %) were imported into GraphPad Prism software, respectively, and curves were fitted by using nonlinear regression method to obtain the corresponding curves of the compounds, and the cytotoxicity (CC50) thereof and inhibitory activity (EC50) values against the HCV replicon thereof.

[2] = system: HCV GT1a wild-type replicon; assay: Assay Example 6: drug resistance, activity against HCV GT1a wild-type replicon; assay type: cell-based; conditions: Hepatitis C virus, 72 h, Huh-7 cells, transient transfection, 3 days, read-out: GT1a-wt EC50 value
Protocol: Cells: Huh-7 cells are liver cancer cell strains (from AppTec, USA), HCVGT1a wild-type replicon and GT1a-NS5A-Y93H and GT1a-NS5A-L31V mutant replicons
Treatment of Compound: According to the assay final concentrations of the compounds in Table 11, DMSO stock solutions of the compounds were diluted and then added to a 96-well assay plate. The final concentration of DMSO was 0.5%.
as §1, with “T7 RNA” for “T7RNA”, “then” for “then the plate was”
Compound activity assay: Luminescence signal value (RLU) was detected with Envision within 5 minutes by using the luciferase assay reagent Britelite plus, and the original data (RLU) was used for the calculation of the activity of the compounds.
The activity of the compounds was calculated by using the equation below: Inhibition %=(CPD−ZPE)/(HPE−ZPE)×100%*
The compound activity percentages (Inhibition %) were imported into GraphPad Prism software, and curves were fitted by using nonlinear regression method to obtain the corresponding curves of the compounds and the inhibitory activity (EC50) values against the HCV replicon thereof.

SMILES: COC(=O)N[C@H](C(=O)N1CCC[C@H]1C(=O)Nc1ccc([C@H]2CC[C@H](c3ccc4nc([C@@H]5CCCN5C(=O)[C@@H](NC(=O)OC)[C@@H](C)OC)[nH]c4c3)N2c2cc(F)c(N3CC[Si](C)(C)CC3)c(F)c2)cc1)[C@@H](C)OC [Compound 6b]
- pEC50 [1]: 11.17
- pEC50 [2]: 11.66

Reference: patent US10766912B2 (priority 2017, dated 2020)
